Experiment [1] relates to 28S and 18S ribosomal RNA. Kind of experiment: ribosomal RNA by agarose-formaldehyde gel electrophoresis and ethidium bromide staining. Format: cell-based, human. As to conditions: MazF expressed for 72 hours, T-Rex-293 cells. The procedure:
Total RNA from Tet-treated or -untreated T-Rex-293 cells at the indicated time points was probed with ^32P-labeled human GAPDH and β-actin cDNA. 28S and 18S ribosomal RNAs were visualized by agarose-formaldehyde gel electrophoresis followed by ethidium bromide staining. […] Human GAPDH and β-actin mRNA levels were quantified by real-time RT-PCR. Relative amounts of mRNA were calculated from the fluorescence signal in the 24-, 48- and 72-hours samples as compared with the corresponding 0-hour sample.

The subject of experiment [2] is T-Rex-293 cells. Put plainly: 35S-methionine metabolic labeling (protein synthesis). Format: cell-based, human. The procedure:
T-Rex-293 (mazF/pcDNA3) and T-Rex-293 (mazF/mazE) cells were incubated for 0, 24 and 48 hr in tetracycline-containing complete DMEM followed by incubation for 1 hr in fresh methionine-free DMEM containing 10 μCi/ml ^35S-methionine. The cells then were washed with PBS twice and lysed in 2× Laemmli buffer. The cell lysate was subjected to SDS-PAGE followed by autoradiography and coomassie blue stain. Signal intensity was measured by Phosphoimager STORM 860 (Molecular Dynamics, Sunnyvale, Calif.).

Experiment [3] relates to T-Rex-293 cells. Kind of experiment: FACS analysis of propidium iodide labeling (sub-G1 peak). The following applies: T-Rex-293 (mazF/pcDNA3), 72 hours of Tet induction. The class given is cell-based, human. The procedure:
T-Rex-293 (mazF/pcDNA3) cells and T-Rex-293 (mazF/mazE) cells treated with tetracycline for 0, 24, 48 and 72 hr were harvested by trypsinization, pelleted by centrifugation and resuspended in PBS. The cells were fixed with ice-cold 70% ethanol for 30 min and stained with propidium iodide (10 μg/ml) and RNase A (100 μg/ml) overnight. The cells were analyzed on a Becton Dickinson FACSCalibur system (San Jose, Calif.).
(In general: A flow cytometer gives signals particle by particle.)

A further experiment has as its system caspase-3, PARP. Kind of experiment: Western blot of active caspase-3 and PARP in T-Rex-293 lysates. The class given is cell-based, human. The procedure:
Western blot analysis and immunofluorescence were performed as previously described (Perez, D., and White, E. J. Cell Biol. 141: 1255-1266 (1998); Perez, D., and White, E. Mol. Cell 6: 53-63 (2000)). The term “Western blot” refers to a method for identifying proteins in a complex mixture; proteins are separated electrophoretically in a gel medium; transferred from the gel to a protein binding sheet or membrane; and the sheet or membrane containing the separated proteins exposed to specific antibodies which bind to, locate, and enable visualization of protein(s) of interest. T-Rex-293 (mazF/pcDNA3) and T-Rex-293 (mazF/mazE) cells were harvested at 0, 24, 48 and 72 hr post-treatment with tetracycline or staurosporine by scraping and centrifugation. All cell pellets were lysed in 2× Laemmli buffer. Cell lysates were subjected to electrophoresis on a 15% SDS-PAGE gel and then transferred onto an Immobilon-P membrane (Millipore, Bedford, Mass.). The blot was incubated with following antibody: anti-active caspase-3 rabbit polyclonal antibody (Cell Signaling Technology, Beverly, Mass.), anti-BAX, anti-BAK rabbit polyclonal antibody (NT) (Upstate Biotechnology Inc., Lake Placid, N.Y.), anti-BID goat polyclonal antibody (R&D Systems, Inc, Minneapolis, Minn.), anti-Bim rabbit polyclonal antibody (Alexis Biochemical, San Diego, Calif.), anti-BCL-2 hamster monoclonal antibody (PharMingen, San Diego, Calif.), anti-BCL-XL mouse monoclonal antibody (Trevigen, Gaithersburg, Md.), anti-MCL-1 rabbit polyclonal antibody (Stressgen Biotechnologies, Victoria, British Columbia, Canada), anti-PARP mouse monoclonal antibody (PharMingen, San Diego, Calif.), anti-PUMA rabbit polyclonal antibody (Nelson, D. A., et al., Genes Dev. 18: 2095-2107 (2004)), anti-E1A monoclonal antibody; anti-actin monoclonal antibody (Oncogene Research Products); and anti-Xpress monoclonal antibody (Invitrogen). An antibody directed to human NBK/BIK was generated by expression of a GST-tagged human NBK/BIK fusion protein encoding an N-terminal 78-amino acid region in bacteria and immunization of rabbits (Cocalico). Western Blots were developed with horseradish peroxidase-conjugated secondary antibodies using the ECL system (Amersham-Pharmacia Biotech, Piscataway, N.J.).
Background: A western blot detects proteins with antibodies after separation by electrophoresis.

For another experiment, the system named is BCL-2 family proteins. Put plainly: Western blot of BCL-2 family proteins in T-Rex-293 lysates. The class given is cell-based, human. The procedure:
Western blot analysis and immunofluorescence were performed as previously described (Perez, D., and White, E. J. Cell Biol. 141: 1255-1266 (1998); Perez, D., and White, E. Mol. Cell 6: 53-63 (2000)). The term “Western blot” refers to a method for identifying proteins in a complex mixture; proteins are separated electrophoretically in a gel medium; transferred from the gel to a protein binding sheet or membrane; and the sheet or membrane containing the separated proteins exposed to specific antibodies which bind to, locate, and enable visualization of protein(s) of interest. T-Rex-293 (mazF/pcDNA3) and T-Rex-293 (mazF/mazE) cells were harvested at 0, 24, 48 and 72 hr post-treatment with tetracycline or staurosporine by scraping and centrifugation. All cell pellets were lysed in 2× Laemmli buffer. Cell lysates were subjected to electrophoresis on a 15% SDS-PAGE gel and then transferred onto an Immobilon-P membrane (Millipore, Bedford, Mass.). […]

A further experiment concerns iBMK cells. Put plainly: β-galactosidase assay, viability of iBMK cells co-expressing LacZ. Format: cell-based, mouse. On the procedure: β-galactosidase assays to determine the viability of iBMK cells co-expressing LacZ and MazF were performed as previously described (Han, J., Sabbatini, P., and White, E. Mol. Cell. Biol. 16: 5857-5864 (1996)). W2, D3, X2 and K1 co-transfected with pcDNA6/His/LacZ and pcDNA4/TO/mazF or pcDNA3 for 48 hr were fixed in 1% glutaraldehyde and then stained with 0.2% X-gal solution at 37° C. for 24 hr. β-Galactosidase positive blue cells and the total number of cells (approximately 200 cells) were independently counted on a 6-cm diameter dish.

For “MazF: E. coli toxin; sequence specific endoribonuclease (mRNA interferase) cleaving single-stranded RNAs at ACA sequences; expressed from plasmid pcDNA4/TO/mazF”, the “levels of 28S and 18S ribosomal RNA” value in experiment [1] was “did not change”. The “total protein levels (Coomassie blue)” value in the experiment on T-Rex-293 cells [2] (MazF expressing T-Rex-293 cells, over the 48 hour induction period) is given as “remain constant”. In the experiment on T-Rex-293 cells [2] (T-Rex-293 (mazF/pcDNA3), 24 hours post induction of MazF), the “protein synthesis (35S-methionine incorporation)” value is reported as “strikingly inhibited”. The substance further registered a sub-G1 peak with T-Rex-293 cells [3] of 65.9%. Besides, the “cleaved PARP (Western blot)” value in the experiment on caspase-3, PARP (T-Rex-293 (mazF/pcDNA3) treated with Tet for 48 hours) is “detected”. Besides, the “cleaved PARP levels (Western blot)” value in the experiment with caspase-3, PARP (T-Rex-293 (mazF/pcDNA3), 72 hours post-induction of MazF) is on record as “further increased”. Besides, the “processed active caspase-3 (Western blot)” value in the experiment on caspase-3, PARP (extracts from T-Rex-293 (mazF/pcDNA3) cells treated with Tet) is reported as “presence of the processed active form of caspase-3”. For the same substance, in the experiment with BCL-2 family proteins (T-Rex-293, MazF induction 0-72 hours), the “levels of BCL-2 family proteins (Western blot)” value is “remained unchanged”. In addition, the “truncated BID (tBID) (Western blot)” value in the experiment on BCL-2 family proteins (T-Rex-293, during MazF-induced apoptosis) was “undetectable”. Also, the β-galactosidase expression result in the experiment with iBMK cells (D3 (bax−/− bak−/−) iBMK cells expressing MazF) is on record as “little effect”. The “response to MazF (β-galactosidase assay)” value in the experiment with iBMK cells (K1 (bak−/−) iBMK cells) was “preferentially resistant”. The β-galactosidase positive cells result with iBMK cells (W2 iBMK cells transiently co-expressing LacZ and MazF, 48 hours post-transfection) is “significant decrease”. Besides, the “number of β-galactosidase positive cells” value is “significantly decreased” in the experiment with iBMK cells (X2 (bax−/−) iBMK cells expressing MazF) and “significantly decreased” in the experiment with iBMK cells (puma−/−, bim−/−, noxa−/− iBMK cells transiently expressing MazF). For the same substance, the “response to MazF-induced cell death (β-galactosidase assay)” value with iBMK cells (nbk/bik−/− iBMK cells) was “preferentially resistant”.

For the origin of these results see patent US20090047742A1 (priority 2005, published 2009).
